Source: patent US20250352608A1, “POLYPEPTIDES HAVING ANTI-INFLAMMATORY EFFECTS AND USES THEREOF” (OneSkin, Inc., priority 2020, published 2025)
Entries after “also recorded” stand apart in the source; their conditions may differ. Ends that are not written are not given here.

Key:
[1] = system: fibroblasts; assay: SA B-galactosidase staining after UVB (Example 8); assay type: cell-based, human; conditions: 48 hours after 2 x 0.05 J/cm^2
Experimental: (§1) In order to shed light into the mechanism of action of Peptide 14 and similar Peptide 13, Akt S473 phosphorylation (FIG. 8, panel A), senescence associated β-galactosidase staining (FIG. 8, panel B), as well as mRNA expression (FIG. 8, panel C) were investigated. For Akt S473 phosphorylation analysis using western blotting, human primary fibroblasts and keratinocytes were used. These cells were used to build human skin equivalents, which were kept in a 5% CO2, 37° C. and 95% humidity atmosphere air liquid interface. Then, skin equivalents were treated with 1p M of either Peptide 14 or Peptide 13 for 5 days, and protein analysis was performed on the skin equivalents. Protein was isolated and quantified. Equal amounts of protein were loaded in polyacrylamide gels and transferred into a nitrocellulose membrane. […] Relative pAkt S473/GAPDH signal was compared between treated and non-treated samples. For senescence associated B-galactosidase staining experiments, fibroblasts were used. […] Total RNA was isolated, samples were reverse transcribed, and mRNA expression of GAPDH, sirtuin 6 (SIRT6), BLM, and exonuclease 1 (EXO1) genes were determined using qPCR. […] CT values were analyzed using the 2^−ΔΔCt method. […] Data was analyzed using a T-test. Statistical significance was determined as p values equal or lower than 0.05 (FIG. 8).

[2] = system: human skin equivalents (donors); assay: Histology score of human skin equivalents (Example 16); assay type: cell-based; conditions: 0.01% w/v (or 1 μM), 5 days; control 21.00
Experimental: To test the effect of Peptide 13 and Peptide 14 treatment on human skin models and the skin morphology, human primary fibroblasts and keratinocytes isolated from healthy elder donors were used to build human skin equivalents. The skin equivalents were treated with 0.01% w/v (or 1 μM) of Peptide 13 or Peptide 14 for 5 days. The negative controls were treated with formulation only. After the 5-day culture, the skin equivalents were analyzed for epidermal thickness, which was quantified according to total epidermal area. Quality assessment based several parameters was performed by blind analysts. […] A minimal score of 19 was required for batch use. This score was validated internally and shown to decrease with age/senescence of the skin equivalents or cultured cells. Three independent experiments were performed with three technical replicates. Data were analyzed using a t-test. Statistical significance was determined as p-values equal or lower than 0.05. The statistically significant p-values are noted by * for p<0.05; ** for p<0.01; *** for p<0.001; **** for p<0.0001 between the groups.

[3] = system: pAkt S473; assay: Akt S473 phosphorylation western blot in skin equivalents; assay type: cell-based, human; conditions: 1p M, 5 days
Experimental: as §1

[4] = system: 3D skin equivalent (elder donors); assay: Relative mRNA expression in 3D skin equivalents versus Retinoic Acid; assay type: cell-based, human; conditions: 1p M peptide vs 20 μM Retinoic Acid
Experimental: 3D skin equivalent sections of samples built with cells from elder donors ([…]) were treated with 1p M Peptide 14 or Peptide 13, or 20 μM Retinoic Acid (RA) and assessed for the effect of the various treatments of various markers of senescence, aging, and health.
Data are presented as 2-ddCt normalized to GAPDH and untreated control. *p<0.05. Peptide 13 and Peptide 14-treated samples generally had similar relative mRNA expression levels for p16, BLIMP1, ZYG11B, IL-8, and Ki-67 in the epidermal layer, and for p16, MMP1, HAS2, IL-8, and Ki-67 in the dermal layer. Peptide 13 and Peptide 14-treated samples generally had lower relative mRNA expression levels than RA-treated samples for p16, BLIMP1, ZYG11B, IL-8, in the epidermal layer and for p16, MMP1, IL-8, and Ki-67 in the dermal layer. Peptide 13 and Peptide 14-treated samples generally had higher relative mRNA expression levels than RA-treated samples for Ki-67 in the epidermal layer and for HAS2 for the dermal layer. Peptide 13 and Peptide 14-treated samples had similar relative mRNA expression levels as RA-treated samples for ZIC1 and Ki-67 for dermal layer.

[5] = system: Human primary fibroblasts isolated from 3 healthy chronologically aged (elder) donors; assay: 3-week exposure: senescence and proliferation; assay type: cell-based; conditions: 3.12 μM, days 7-28
Experimental: Human primary fibroblasts isolated from 3 healthy chronologically aged (elder) donors were used. These cells were cultured in DMEM (Dulbecco's Modified Eagle's Medium) supplemented with 10% v.v. fetal bovine serum (FBS), and 1% v.v. of penicillin/streptomycin solution (1,000 U·mL-1). Cells were kept in a 5% CO2, 37° C. and 95% humidity atmosphere. After expansion, these cells were seeded in T-75 flasks (250,000 cells per flask) and, 6 hours after plating, were incubated for 3 weeks (21 days) with Peptide 14 at 3.12 μM. A negative control comprised untreated cells, which received vehicle only. Day 0 was defined as the day cells started to be treated with Peptide 14. No Peptide 14 treatment was performed between days 21 and 28. Weekly, cellular senescence was assessed according to senescence associated β-galactosidase staining levels. Data was normalized to untreated group and plotted (FIG. 4, panel A). Cellular proliferation was also determined weekly. At days 7, 14, 21, and 28, cells were trypsinized and counted (FIG. 4, panel B). After counting, 250,000 cells were plated in new T-75 flasks. Three independent experiments (biological replicates) including three technical replicates were performed. Data was analyzed using T-test. Statistical significance was determined as p values equal or lower than 0.05.

[6] = system: human primary fibroblasts isolated from 3 healthy donors; assay: UVB-induced senescence; assay type: cell-based; conditions: 5 μM, 48 hours
Experimental: Cellular senescence may be caused by several different stimuli. In order to assess whether Peptide 14 was effective against UVB-induced and chemically-induced senescence, human primary fibroblasts isolated from 3 healthy donors were used. These cells were cultured in DMEM (Dulbecco's Modified Eagle's Medium) supplemented with 10% v.v. fetal bovine serum (FBS), and 1% v.v. of penicillin/streptomycin solution (1,000 U mL-1). Cells were kept in a 5% CO2, 37° C. and 95% humidity atmosphere. After expansion, these cells were seeded in 96-well plates (4,000 cells per well) and, 6 hours after plating, were submitted to either etoposide (20 μM) treatment for 24 hours, or exposed twice to 0.05 J/cm^2 of UVB radiation. […] After incubation, relative cellular senescence (assessed by the activity of senescence associated β-galactosidase staining relative to untreated control) was analyzed and plotted in column graphs. ATRX foci were also assessed following ATRX immunofluorescence staining. Graphs were built using the average ATRX foci detected per nuclei. […] Data was analyzed using with either t-test or ANOVA followed by a Bonferroni post-hoc test. Statistical significance was determined as p-values equal or lower than 0.05 (FIG. 6).

[7] = system: Caenorhabditis elegans; assay: C. elegans healthspan and lifespan; assay type: in vivo; conditions: at the concentrations tested (1 μM, 2 μM)
Experimental: Senotherapeutic strategies can be linked to healthspan and lifespan extension in vivo. In order to assess whether Peptide 14 promotes extended healthspan and lifespan, Caenorhabditis elegans worms were used. Peptide 14 was added in the worm media (M9 buffer media) at different concentrations of 1 μM or 2 μM. Negative control worms received vehicle only. Two healthspan parameters were assessed i) pharyngeal pumping and ii) worm movement. Lifespan was also determined. For pharyngeal pumping analysis, 15 worms had their pharynx movement (pumping) observed daily and counted for 20 seconds. This experiment was repeated 3 times, by 2 different blind observers, employing different populations of animals at different days. Statistical difference was detected by analyzing each individual time point by One-Way ANOVA and Dunnet's post hoc test. All groups were compared with the H2O group. For worm movement analysis, the basic movement of C. elegans, also called thrashing, was measured daily for 15 worms. […] Statistical difference was detected by analyzing each individual time point by One-Way ANOVA and Dunnet's post hoc, and all groups were compared with the H2O group. […] The average lifespan was measured. Statistical difference was detected by analyzing each individual time point by One-Way ANOVA and Dunnet's post hoc, and all groups were compared with the H2O group (FIG. 15).

[8] = system: peripheral blood mononuclear cells (PBMCs); assay: PBMC viability / toxicity (MTT); assay type: cell-based, human; conditions: 1.56 μM to 150 μM
Experimental: T cells may be involved in inflammation of various skin disorders. […] This study was approved by an IRB board. PBMCs were obtained from healthy volunteers. After isolation, the PBMCs were maintained in 96 wells and treated with different concentrations of Peptide 14 (1.56 μM to 150 μM) in order to assess toxicity of Peptide 14 to the PBMCs.
The viability and proliferation of PBMCs were analyzed by MTT assay. Briefly, after 5 days of treatment, the cells were incubated with […] MTT reagent for 4 hours. Then, 100 μL of DMSO was added into each well, and the absorbance was detected at 595 nm. Data was presented as percentage of proliferation/viability normalized to the negative control of untreated PBMCs (100% viability/proliferation).

[9] = system: U-937 macrophages; conditions: 3.12 μM, absence or presence of 0.5 μg/mL LPS
Excerpt: In some cases, monocytes and macrophages may be involved in inflammation of various skin disorders. In order to assess the effect of Peptide 14 on inflammation, an in vitro model of inflammation using monocytes and macrophages was used to study the effect of direct culture of the Peptide 14 with such cells. Cells from the U-937 cell line (Banco de Células do Rio de Janeiro—BCRJ cat. 0242) were used for experiments. According to BCRJ, the U-937 cell line was derived by Sundstrom and Nilsson in 1974 from malignant cells obtained from the pleural effusion of a patient with histiocytic lymphoma. Also, studies since 1979 have shown that U-937 cells can be induced to terminal monocytic differentiation by supernatants from human mixed lymphocyte cultures or phorbol myristic acid (PMA) stimulation.

ATAKAWLKGI [Peptide 13]
SA B-galactosidase staining in UVB-exposed samples [1]: decreased staining
mean of histology scores (maximum 28) [2]: 23.44
pAkt S473, dermal samples [3]: decreased
relative mRNA BLIMP1, epidermal layer, vs RA-treated samples [4]: lower
relative mRNA HAS2, dermal layer, vs RA-treated samples [4]: higher
relative mRNA IL-8, dermal layer, vs RA-treated samples [4]: lower
relative mRNA IL-8, epidermal layer, vs RA-treated samples [4]: lower
relative mRNA Ki-67, dermal layer, vs RA-treated samples [4]: lower; also recorded: similar
relative mRNA Ki-67, epidermal layer, vs RA-treated samples [4]: higher
relative mRNA MMP1, dermal layer, vs RA-treated samples [4]: lower
relative mRNA ZIC1 vs RA-treated samples [4]: similar
relative mRNA ZYG11B, epidermal layer, vs RA-treated samples [4]: lower
relative mRNA p16, dermal layer, vs RA-treated samples [4]: lower
relative mRNA p16, epidermal layer, vs RA-treated samples [4]: lower

ETAKHWLKGI [Peptide 14, ETAKHWLKGI]
cell proliferation vs untreated control [5]: No significant differences
cell number after UVB [6]: did not significantly alter cell number
toxicity to C. elegans (worm movement) [7]: not toxic
cell toxicity to PBMCs [8]: nor any detectable cell toxicity
cell viability vs untreated control PBMCs [8]: did not result in lower cell viabilities
cell toxicity to U-937 macrophages [9]: nor any detectable cell toxicity
cell viability vs untreated control U-937 macrophages [9]: did not result in lower cell viabilities
